From BindingDB's records for doi:10.1021/jm990599h (National Institute of Diabetes and Digestive and Kidney …, 2000)

Target: Beta-2 adrenergic receptor (Rattus norvegicus) (UniProt P10608)
Assay: Binding of [3H]dihydroalprenolol to beta-2 adrenergic receptor of rat cerebellar membranes

Sequence of Beta-2 adrenergic receptor (Rattus norvegicus) (P10608 whole entry, looked up): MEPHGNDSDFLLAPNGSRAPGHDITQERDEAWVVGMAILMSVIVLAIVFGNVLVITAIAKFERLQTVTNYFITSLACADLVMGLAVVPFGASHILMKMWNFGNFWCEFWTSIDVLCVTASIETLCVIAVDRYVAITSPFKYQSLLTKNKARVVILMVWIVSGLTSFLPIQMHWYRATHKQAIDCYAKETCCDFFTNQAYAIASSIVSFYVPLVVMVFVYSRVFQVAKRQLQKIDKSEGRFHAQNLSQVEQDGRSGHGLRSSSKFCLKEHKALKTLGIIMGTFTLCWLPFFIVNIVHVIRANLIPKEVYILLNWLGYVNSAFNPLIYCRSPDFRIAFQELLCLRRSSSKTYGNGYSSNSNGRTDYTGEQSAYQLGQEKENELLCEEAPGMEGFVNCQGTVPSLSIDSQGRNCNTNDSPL

**Q.** With `CNC[C@H](O)c1cc(O)c(O)cc1F` [(R)4-Fluoro-5-(1-hydroxy-2-methylamino-ethyl)-benzene-1,2-diol] as the compound, how does the Ki read?
**A.** 38 µM

**Q.** For `CNCC(O)c1cc(O)c(O)cc1F` (stereo not drawn) [(+/-)4-Fluoro-5-(1-hydroxy-2-methylamino-ethyl)-benzene-1,2-diol], which Ki is on record?
**A.** 50 µM

**Q.** Which Ki does the source give for `NCCc1ccc(O)c(O)c1` here?
**A.** 50 µM
